{
  "source": "patent US20250155427A1",
  "about": "“CELLS […] TASTE RECEPTORS AND USES THEREOF” (Firmenich Incorporated, priority 2022, published 2025)",
  "target": "T1, human T1R1, a rat-human T1R3 chimera, and the promiscuous G-protein G16gust25 (UniProt Q7RTX1+Q923K1, A568E/A645S/A698V/A702T/A793V/A807V/C582S/C678S/E725V/E827G/F612A/F622V/F805L/I617V/I740A/I779T/I803L/K818R/L735F/L823M/L825Q/M644L/M706V/M729T/N675D/Q717H/Q757R/Q795R/Q831P/R632Q/R634S/S576L/S610P/S635P/S637R/S679G/T588V/T694M/T813A/V584A/V718M/V723A/V738A/V744T/V821L/W599R/W676R/W824R/Y598H/Y680C/Y794L)",
  "T1 sequence (Q7RTX1 21-841)": "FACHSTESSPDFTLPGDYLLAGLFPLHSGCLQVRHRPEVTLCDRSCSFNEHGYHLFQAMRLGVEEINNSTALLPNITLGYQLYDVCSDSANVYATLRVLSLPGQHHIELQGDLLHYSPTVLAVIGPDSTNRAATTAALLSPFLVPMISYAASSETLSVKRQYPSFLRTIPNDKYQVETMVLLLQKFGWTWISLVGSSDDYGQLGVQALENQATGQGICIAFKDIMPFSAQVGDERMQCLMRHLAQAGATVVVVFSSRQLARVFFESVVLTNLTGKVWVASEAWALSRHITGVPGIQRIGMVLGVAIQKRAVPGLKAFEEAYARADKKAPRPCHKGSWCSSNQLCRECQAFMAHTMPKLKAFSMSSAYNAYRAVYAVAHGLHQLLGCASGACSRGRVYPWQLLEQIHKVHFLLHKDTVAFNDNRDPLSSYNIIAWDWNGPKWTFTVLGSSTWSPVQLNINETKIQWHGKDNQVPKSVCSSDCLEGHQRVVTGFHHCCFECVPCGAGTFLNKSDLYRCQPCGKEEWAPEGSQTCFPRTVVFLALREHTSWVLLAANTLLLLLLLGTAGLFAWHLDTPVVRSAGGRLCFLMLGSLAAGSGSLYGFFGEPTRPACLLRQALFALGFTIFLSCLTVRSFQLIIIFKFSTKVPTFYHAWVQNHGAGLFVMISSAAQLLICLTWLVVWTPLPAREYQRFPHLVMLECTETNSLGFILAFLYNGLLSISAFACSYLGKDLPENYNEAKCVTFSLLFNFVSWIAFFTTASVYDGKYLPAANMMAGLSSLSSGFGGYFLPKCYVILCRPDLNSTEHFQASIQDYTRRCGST",
  "T1 sequence (Q923K1 with tags, fused parts or gaps A568E/S576L/C582S/V584A/T588V/Y598H/W599R/S610P/F612A/I617V/F622V/R632Q/R634S/S635P/S637R/M644L/A645S/N675D/W676R/C678S/S679G/Y680C/T694M/A698V/A702T/M706V/Q717H/V718M/V723A/E725V/M729T/L735F/V738A/I740A/V744T/Q757R/I779T/A793V/Y794L/Q795R/I803L/F805L/A807V/T813A/K818R/V821L/L823M/W824R/L825Q/E827G/Q831P limits assumed)": "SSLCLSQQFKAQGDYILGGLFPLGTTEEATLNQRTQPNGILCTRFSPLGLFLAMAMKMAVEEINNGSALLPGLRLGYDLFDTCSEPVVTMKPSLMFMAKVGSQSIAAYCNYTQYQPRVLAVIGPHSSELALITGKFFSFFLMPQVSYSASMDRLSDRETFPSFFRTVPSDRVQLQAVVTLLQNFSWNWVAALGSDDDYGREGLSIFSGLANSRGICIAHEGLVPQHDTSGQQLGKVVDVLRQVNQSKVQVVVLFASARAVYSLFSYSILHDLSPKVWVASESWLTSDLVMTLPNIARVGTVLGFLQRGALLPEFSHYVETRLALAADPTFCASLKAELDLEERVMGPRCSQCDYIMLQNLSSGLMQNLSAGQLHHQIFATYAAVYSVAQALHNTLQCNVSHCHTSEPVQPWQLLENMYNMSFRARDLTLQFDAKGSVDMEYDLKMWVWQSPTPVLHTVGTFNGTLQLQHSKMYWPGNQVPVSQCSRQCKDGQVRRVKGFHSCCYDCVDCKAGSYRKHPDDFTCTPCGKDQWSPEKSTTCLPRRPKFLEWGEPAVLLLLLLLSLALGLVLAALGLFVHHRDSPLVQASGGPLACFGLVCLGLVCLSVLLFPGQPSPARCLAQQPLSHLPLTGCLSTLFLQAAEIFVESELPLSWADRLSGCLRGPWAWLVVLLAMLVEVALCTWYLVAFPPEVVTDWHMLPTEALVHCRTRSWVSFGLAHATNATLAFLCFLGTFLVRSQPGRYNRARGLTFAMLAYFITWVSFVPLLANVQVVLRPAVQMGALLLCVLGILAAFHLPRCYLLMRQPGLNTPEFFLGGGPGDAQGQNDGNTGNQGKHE",
  "settings": "MSG dose response, U2OS cell line, FIG. 4A",
  "text": "The x-axis plots the log of MSG concentration, while the y-axis plots fold change in fluorescence of a Ca^2+-sensitive fluorescent dye in response to intracellular Ca^2+ concentration.\nThe x-axis plots the log of savory compound concentration, while the y-axis plots fold change in fluorescence of a Ca^2+-sensitive fluorescent dye in response to intracellular Ca^2+ concentration. FIG. 4A also indicates the EC50 for each compound.",
  "data": [
    {"compound": "N[C@@H](CCC(=O)O)C(=O)[O-].[Na+]", "note": "[MSG, monosodium glutamate]", "values": [
      {"measurement": "fold change in fluorescence of a Ca^2+-sensitive fluorescent dye in response to intracellular Ca^2+ concentration", "value": "fluorescence detectably increases as MSG concentration increases"}
    ]}
  ]
}
